# Measurements taken from patent US20090143279A1 (priority 2007, published 2009).
# Where a name gives a salt, the structure may show the parent alone. Read-outs that look alike come from different tables or passages of the source.
# What was measured:
# nuOXPHOS transcripts = type: cell-based, mouse
# mtOXPHOS transcripts = type: cell-based, mouse
# [1] = test system: cellular dehydrogenase activity
# OXPHOS gene expression = type: cell-based, mouse; conditions: for OXPHOS expression: primary screen, in words; for dose at which OXPHOS expression increased: retest at 20 nM to 20 μM, FIG. 6a
# reactive oxygen species = type: cell-based, mouse; conditions: for ROS levels: primary screen, in words; for dose at which ROS levels decreased: retest at 20 nM to 20 μM, FIG. 6a
# [2] = test system: mitochondrial membrane potential; type: cell-based, mouse
# cytochrome c = type: cell-based, mouse
# [3] = Table 7, C2C12 myotubes, 48 h, composite Z-score
# [4] = composite Z-score vs mock-treated (DMSO) wells, Conc 20 μM
# [5] = composite Z-score vs DMSO wells, Conc 20 μM
# [6] = Table 3, differentiated C2C12 myotubes, 48 h treatment, composite Z-score vs DMSO
# [7] = Table 5, C2C12 myotubes, 48 h, composite Z-score
# [8] = composite Z-score vs mock-treated (DMSO) wells, concentration of each compound in μM
compound,measurement,setting,value
"CC(C)=CCC[C@]1(C)C=Cc2c(O)c3c(c(CC=C(C)C)c2O1)O[C@]12C(=C[C@@H]4CC1C(C)(C)O[C@@]2(C/C=C(/C)C(N)=O)C4=O)C3=O [gambogic acid amide, reference compound]",nucOXPHOS Z,nuOXPHOS transcripts; [3],−4.01
same,mito-OXPHOS Z,mtOXPHOS transcripts; [3],−2.68
CC(=O)O[C@@H]1CC2C(C)(C)[C@H](O)C=C[C@]2(C)C2CC[C@@]3(C)[C@H](c4ccoc4)OC(=O)C4OC43[C@@]21C (stereo partly drawn) [gedunol],MTT,[1]; [4],−1.248
same,GE-HTS,OXPHOS gene expression; [4],−1.545
same,ROS,reactive oxygen species; [4],0.132
same,Viability,C2C12 myotubes; [4],0.438
same,nucOX,nuOXPHOS transcripts; [4],−1.561
same,mitoOX,mtOXPHOS transcripts; [4],−1.174
same,ΔΨm,[2]; [4],0.897
"Cc1c(O)cc(O)c2c(=O)c(-c3ccc(O)cc3)coc12 [genistein, 8-methyl]",MTT (composite Z-score),[1],−1.035
same,GE-HTS (composite Z-score),OXPHOS gene expression,0.247
same,ROS (composite Z-score),reactive oxygen species,1.016
same,Viability (composite Z-score),C2C12 myotubes,−0.071
same,nucOX (composite Z-score),nuOXPHOS transcripts,0.353
same,mitoOX (composite Z-score),mtOXPHOS transcripts,0.023
same,ΔΨm (composite Z-score),[2],−0.404
CC(=O)O[C@@H]1CC2C(C)(C)C=CC(=O)[C@]2(C)C2CC[C@@]3(C)[C@H](c4ccoc4)OC(=O)C4OC43[C@@]21C (stereo partly drawn) [isogedunin],MTT,[1]; [4],−1.716
same,GE-HTS,OXPHOS gene expression; [4],0.805
same,Viability,C2C12 myotubes; [4],0.404
same,cyt c,cytochrome c; [4],0.050
same,nucOX,nuOXPHOS transcripts; [4],0.883
same,mitoOX,mtOXPHOS transcripts; [4],0.523
same,ΔΨm,[2]; [4],−0.489
CON [methoxyamine],MTT,[1]; [5],−1.833
same,GE-HTS,OXPHOS gene expression; [5],−1.274
same,ROS,reactive oxygen species; [5],0.751
same,cyt c,cytochrome c; [5],0.749
same,nucOX,nuOXPHOS transcripts; [5],−1.049
same,mitoOX,mtOXPHOS transcripts; [5],−1.494
same,ΔΨm,[2]; [5],−0.754
Cc1cc(C(C)(C)CC(C)(C)C)ccc1OCCOCC[N+](C)(C)Cc1ccccc1 [methylbenzethonium],MTT,[1],−5.614
same,GE-HTS,OXPHOS gene expression,−1.868
same,ROS,reactive oxygen species,−3.108
same,Viability,C2C12 myotubes,−4.580
same,nucOX,nuOXPHOS transcripts,−2.103
same,mitoOX,mtOXPHOS transcripts,−1.043
same,ΔΨm,[2],−4.202
"CC[C@@]1([C@@H]2O[C@@H]([C@H]3O[C@@](O)(CO)[C@H](C)C[C@@H]3C)C[C@@H]2C)CC[C@H]([C@]2(C)CC[C@]3(C[C@H](O)[C@@H](C)[C@@H]([C@@H](C)[C@@H](OC)[C@H](C)C(=O)O)O3)O2)O1 [monensin, reference compound]",nucOXPHOS Z,nuOXPHOS transcripts; [3],0.70
same,mito-OXPHOS Z,mtOXPHOS transcripts; [3],−4.13
"COc1cc([C@@H]2c3cc4c(cc3[C@H](O)[C@H]3COC(=O)[C@H]23)OCO4)cc(OC)c1OC [podofilox, reference compound]",GEHTS_Zscore,OXPHOS gene expression; [6],3.408
same,OXPHOS expression,OXPHOS gene expression,boost OXPHOS expression
same,dose at which OXPHOS expression increased,OXPHOS gene expression,2 µM
same,ROS Zscore,reactive oxygen species; [6],−1.436
same,ROS levels,reactive oxygen species,suppressing ROS levels
same,dose at which ROS levels decreased,reactive oxygen species,2 µM
same,nucOXPHOS Z,nuOXPHOS transcripts; [3],2.53
same,mito-OXPHOS Z,mtOXPHOS transcripts; [3],1.28
NCCCCN [putrescine],MTT,[1],−0.806
same,GE-HTS,OXPHOS gene expression,−0.341
same,ROS,reactive oxygen species,0.279
same,Viability,C2C12 myotubes,−0.586
same,cyt c,cytochrome c,0.897
same,nucOX,nuOXPHOS transcripts,−0.160
same,mitoOX,mtOXPHOS transcripts,−0.684
O=C(O[C@@H]1Cc2c(O)cc(O)cc2O[C@@H]1c1cc(O)c(=O)c2c(O)c(O)cc([C@H]3Oc4cc(O)cc(O)c4C[C@H]3OC(=O)c3cc(O)c(O)c(O)c3)c2c1)c1cc(O)c(O)c(O)c1 [theaflavin digallate],MTT,[1],−0.518
same,GE-HTS,OXPHOS gene expression,0.783
same,ROS,reactive oxygen species,0.718
same,Viability,C2C12 myotubes,−1.408
same,nucOX,nuOXPHOS transcripts,0.948
same,mitoOX,mtOXPHOS transcripts,0.275
same,ΔΨm,[2],−0.326
"CC[C@]1(O)C[C@@H]2CN(CCc3c([nH]c4ccccc34)[C@@](C(=O)OC)(c3cc4c(cc3OC)N(C)[C@H]3[C@@](O)(C(=O)OC)[C@H](OC(C)=O)[C@]5(CC)C=CCN6CC[C@]43[C@@H]65)C2)C1 [vinblastine sulfate, reference compound]",GEHTS_Zscore,OXPHOS gene expression; [6],3.171
same,GEHTS_Zscore,OXPHOS gene expression; [7],3.171
same,OXPHOS expression,OXPHOS gene expression,boost OXPHOS expression
same,dose at which OXPHOS expression increased,OXPHOS gene expression,2 µM
same,ROS Zscore,reactive oxygen species; [6],−1.327
same,ROS Zscore,reactive oxygen species; [7],−1.327
same,ROS levels,reactive oxygen species,suppressing ROS levels
same,dose at which ROS levels decreased,reactive oxygen species,2 µM
same,cyt c,cytochrome c; [8],−1.078
same,nucOXPHOS Z,nuOXPHOS transcripts; [3],2.09
same,mito-OXPHOS Z,mtOXPHOS transcripts; [3],1.64
Thimerosal [reference compound],MTT,[1],−6.206
same,ROS,reactive oxygen species,−3.880
same,Viability,C2C12 myotubes,−5.590
same,nucOXPHOS Z,nuOXPHOS transcripts,−1.20
same,mito-OXPHOS Z,mtOXPHOS transcripts,10.41
same,ΔΨm,[2],−3.315
cinnarazine,MTT,[1],−1.003
same,MTT (composite Z-score),[1],−0.009
same,GE-HTS (composite Z-score),OXPHOS gene expression,0.362
same,ROS,reactive oxygen species,0.777
same,ROS (composite Z-score),reactive oxygen species,1.252
same,Viability,C2C12 myotubes,0.752
same,Viability (composite Z-score),C2C12 myotubes,−0.692
same,nucOX (composite Z-score),nuOXPHOS transcripts,0.338
same,mitoOX (composite Z-score),mtOXPHOS transcripts,0.349
same,ΔΨm,[2],0.544
same,ΔΨm (composite Z-score),[2],−0.711
nonoxynol-9,MTT,[1]; [8],−1.228
same,GE-HTS,OXPHOS gene expression; [8],−0.872
same,ROS,reactive oxygen species; [8],0.528
same,Viability,C2C12 myotubes; [8],−0.209
same,nucOX,nuOXPHOS transcripts; [8],−1.114
same,mitoOX,mtOXPHOS transcripts; [8],−0.138
same,ΔΨm,[2]; [8],−1.484
